Measurements: PubChem BioAssay (NCI)
“And” between values parts separate entries of the source, which are not always exact repeats. Identical values can stand only once.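 Where inhibition never reached the appropriate level, the endpoint shown equals the highest concentration tested. Otherwise, values were interpolated linearly from a five-concentration, 48-hour dose response in 96-well plates. GI50 marks 50% less growth. TGI: total growth inhibition.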

What follows are compounds tested on CAKI-1 renal (assay: NCI tumour cell line growth inhibition, 48 h).

Structure (SMILES) | TGI | GI50 [µM]
O=C(c1cccs1)N(C(=S)OC12CC3CC(CC(C3)C1)C2)c1ccccc1 | > 100 µM | 
C(=N\NC1=NCCN1)/c1ccc(-c2cn3cc(/C=N/NC4=NCCN4)ccc3n2)cc1 | 49.4 µM | 
CC1CC[C@@]2(OC1)OC1C[C@H]3[C@@H]4CC=C5CC(OC6OC(CO)C(OC7OC(CO)C(O)C(OC8OCC(O)C(O)C8O)C7OC7OC(CO)C(O)C(O)C7O)C(O)C6O)CCC5(C)[C@H]4CCC3(C)C1[C@@H]2C (stereo not given in full) | 10.3 µM | 
Cc1c(N2C(=O)CS(=O)(=O)C2c2cccc(Oc3ccccc3)c2)c(=O)n(-c2ccccc2)n1C (stereo not given) | > 100 µM | 
COc1cc2c(ccc3c4cc(OC)c(OC)cc4c[n+](C)c23)cc1O | > 75 µM | 
CNC(=O)OCc1c(CO)nc(SC)n1C | > 100 µM | 
CN(C)CC(CC1=C(CC(CN(C)C)N(C)C)CCC1)N(C)C (stereo not given) | > 100 µM | 
CCC1CN(C(=O)c2ccccc2)C(Cc2c[nH]c3ccccc23)C(=O)C1CC(=O)OC (stereo not given) | > 100 µM | 
CC12CC3OC(=O)C1COC14OC5(C2C1=O)C(O)(CCC1C4CC(O)C2(O)CC=CC(=O)C12C)C(=O)OC35C (stereo not given) | > 100 µM | 
O=c1cccccc1[O-].O=c1cccccc1[O-].[O]=[U+2]=[O] | 56.4 µM | 
COc1ccc(C(=O)/C=C/c2cccc([N+](=O)[O-])c2)c(OC)c1 | > 50 µM | 1.98
CCOC(=O)C(NC(=O)c1ccco1)(Nc1nc2ccc(OCC)cc2s1)C(F)(F)F (stereo not given) | 45.8 µM | 
CCC(C)C1=C(OC(C)=O)[N+]2([O-])Oc3ccc(-c4c(OC(C)=O)c(OC(C)=O)c(-c5ccc(OC(C)=O)cc5)c(OC(C)=O)c4OC(C)=O)cc3OC2(C(C)CC)C(=O)N1OC(C)=O (stereo not given) | > 50 µM | 
O=C(O)C1C2CCC(O2)C1C(=O)Nc1cccc2cccnc12 (stereo not given) | > 100 µM | 
COc1cccc2c1Cc1cc(-c3ccccc3)[n+](C)n1-2 | > 100 µM | 
O=C(OCN1C(=O)C2C3C=CC(C2C1=O)C1C2C(=O)N(COC(=O)C4CCCN4)C(=O)C2C31)C1CCCN1 (stereo not given) | > 100 µM | 
O=C(C[n+]1ccc2ccccc2c1)c1ccc2ccc3ccccc3c2c1 | 20.1 µM | 
NCCCCc1cc(O)c2c(c1O)C(=O)c1ccccc1C2=O | 27.2 µM | 
Cc1ccccc1C(=O)N/N=C/c1ccc(Sc2nccn2C)c([N+](=O)[O-])c1 | > 100 µM | 
CC(=O)C1=C(C)N(c2ccc(C)cc2)C2(O)C=CC(=O)C3C(=O)N(c4ccccc4)C(=O)C132 (stereo not given) | 45.4 µM | 
COc1ccc2c(c1)[nH]c1c(/C=C/c3ccccc3)nccc12 | 52 µM | 
Clc1cc2c(cc1Cl)CC(NCCN1CCCC1)CC2 (stereo not given) | 30.2 µM | 
CCN(CC(=O)O)C(=O)c1cccnc1 | > 100 µM | 
NCCSC(c1ccccc1)c1ccccc1 | 67.2 µM | 
CCCCCCCCC/C=C/C=C/C(=O)NCC(=O)NC1C(O)C(O)C(Nc2ncnc3nc[nH]c23)OC1C(O)CO (stereo not given) | 0.0105 µM and 0.0747 µM | 
COc1nc(C#CC2(O)CCCCC2)nc(OC)n1 | 15.9 µM | 
C[C@H](CCC(=O)O)[C@H]1CC[C@@]2(C)[C@@H]3C(=O)C[C@H]4C(C)(C)[C@@H](O)CC[C@]4(C)[C@H]3C(=O)C[C@]12C | > 100 µM | 

Each compound was assayed on UACC-257 melanoma (assay: NCI tumour cell line growth inhibition, 48 h).

Structure (SMILES) | TGI [µM] | GI50 [µM]
CCOC(=O)C1=NN(c2ccc(C)cc2)C2=CC(C)=NN(C)C(=S)N21 | > 100 | 
O=C(c1cccs1)N(C(=S)OC12CC3CC(CC(C3)C1)C2)c1ccccc1 | > 100 | 
C(=N\NC1=NCCN1)/c1ccc(-c2cn3cc(/C=N/NC4=NCCN4)ccc3n2)cc1 | > 100 | 
CC1CC[C@@]2(OC1)OC1C[C@H]3[C@@H]4CC=C5CC(OC6OC(CO)C(OC7OC(CO)C(O)C(OC8OCC(O)C(O)C8O)C7OC7OC(CO)C(O)C(O)C7O)C(O)C6O)CCC5(C)[C@H]4CCC3(C)C1[C@@H]2C (stereo not given in full) | 18 | 
Nc1ccccc1S(=O)(=O)c1ccccc1 | > 100 | 
Cc1c(N2C(=O)CS(=O)(=O)C2c2cccc(Oc3ccccc3)c2)c(=O)n(-c2ccccc2)n1C (stereo not given) | > 100 | 
COc1cc2c(ccc3c4cc(OC)c(OC)cc4c[n+](C)c23)cc1O | > 75 | 
CNC(=O)OCc1c(CO)nc(SC)n1C | > 100 | 
CN(C)CC(CC1=C(CC(CN(C)C)N(C)C)CCC1)N(C)C (stereo not given) | > 100 | 
CCC1CN(C(=O)c2ccccc2)C(Cc2c[nH]c3ccccc23)C(=O)C1CC(=O)OC (stereo not given) | > 100 | 
CC12CC3OC(=O)C1COC14OC5(C2C1=O)C(O)(CCC1C4CC(O)C2(O)CC=CC(=O)C12C)C(=O)OC35C (stereo not given) | > 100 | 
O=c1cccccc1[O-].O=c1cccccc1[O-].[O]=[U+2]=[O] | 68.5 | 
COc1ccc(C(=O)/C=C/c2cccc([N+](=O)[O-])c2)c(OC)c1 | > 50 | > 50
CCOC(=O)C(NC(=O)c1ccco1)(Nc1nc2ccc(OCC)cc2s1)C(F)(F)F (stereo not given) | 76.1 | 
CCC(C)C1=C(OC(C)=O)[N+]2([O-])Oc3ccc(-c4c(OC(C)=O)c(OC(C)=O)c(-c5ccc(OC(C)=O)cc5)c(OC(C)=O)c4OC(C)=O)cc3OC2(C(C)CC)C(=O)N1OC(C)=O (stereo not given) | > 50 | 
O=C(O)C1C2CCC(O2)C1C(=O)Nc1cccc2cccnc12 (stereo not given) | > 100 | 

Structure (SMILES) | TGI [µM] | GI50 [µM]
COc1cccc2c1Cc1cc(-c3ccccc3)[n+](C)n1-2 | 14.4 | 
O=C(OCN1C(=O)C2C3C=CC(C2C1=O)C1C2C(=O)N(COC(=O)C4CCCN4)C(=O)C2C31)C1CCCN1 (stereo not given) | > 100 | 
O=C(C[n+]1ccc2ccccc2c1)c1ccc2ccc3ccccc3c2c1 | 5.64 | 
NCCCCc1cc(O)c2c(c1O)C(=O)c1ccccc1C2=O | 33.4 | 
Cc1ccccc1C(=O)N/N=C/c1ccc(Sc2nccn2C)c([N+](=O)[O-])c1 | > 100 | 
CCn1c(-c2ccc(N=NNc3ccc(-c4n[nH]c(=S)n4CC)cc3)cc2)n[nH]c1=S | > 100 | 
CC(=O)C1=C(C)N(c2ccc(C)cc2)C2(O)C=CC(=O)C3C(=O)N(c4ccccc4)C(=O)C132 (stereo not given) | 36.5 | 
COc1ccc2c(c1)[nH]c1c(/C=C/c3ccccc3)nccc12 | 31.1 | 
Clc1cc2c(cc1Cl)CC(NCCN1CCCC1)CC2 (stereo not given) | 21.3 | 
[N-]=[N+]=CC(=O)c1ccccc1C#CCCc1ccccc1 | 94.7 | 
CCN(CC(=O)O)C(=O)c1cccnc1 | > 100 | 
NCCSC(c1ccccc1)c1ccccc1 | 30 | 
CCCCCCCCC/C=C/C=C/C(=O)NCC(=O)NC1C(O)C(O)C(Nc2ncnc3nc[nH]c23)OC1C(O)CO (stereo not given) | 0.207 | 
COc1nc(C#CC2(O)CCCCC2)nc(OC)n1 | 31.7 | 
C[C@H](CCC(=O)O)[C@H]1CC[C@@]2(C)[C@@H]3C(=O)C[C@H]4C(C)(C)[C@@H](O)CC[C@]4(C)[C@H]3C(=O)C[C@]12C | > 100 | 

What follows are compounds tested on TK-10 renal (assay: NCI tumour cell line growth inhibition, 48 h).

Structure (SMILES) | TGI [µM] | GI50 [µM]
CCOC(=O)C1=NN(c2ccc(C)cc2)C2=CC(C)=NN(C)C(=S)N21 | > 100 | 
O=C(c1cccs1)N(C(=S)OC12CC3CC(CC(C3)C1)C2)c1ccccc1 | > 100 | 
C(=N\NC1=NCCN1)/c1ccc(-c2cn3cc(/C=N/NC4=NCCN4)ccc3n2)cc1 | 56.1 | 
CC1CC[C@@]2(OC1)OC1C[C@H]3[C@@H]4CC=C5CC(OC6OC(CO)C(OC7OC(CO)C(O)C(OC8OCC(O)C(O)C8O)C7OC7OC(CO)C(O)C(O)C7O)C(O)C6O)CCC5(C)[C@H]4CCC3(C)C1[C@@H]2C (stereo not given in full) | 20.2 | 
Nc1ccccc1S(=O)(=O)c1ccccc1 | > 100 | 
Cc1c(N2C(=O)CS(=O)(=O)C2c2cccc(Oc3ccccc3)c2)c(=O)n(-c2ccccc2)n1C (stereo not given) | 47.7 | 
CCC1CN(C(=O)c2ccccc2)C(Cc2c[nH]c3ccccc23)C(=O)C1CC(=O)OC (stereo not given) | > 100 | 
CC12CC3OC(=O)C1COC14OC5(C2C1=O)C(O)(CCC1C4CC(O)C2(O)CC=CC(=O)C12C)C(=O)OC35C (stereo not given) | > 100 | 
NC(=O)c1c(NC(=O)c2ccccn2)sc2c1CCC(=O)C2 | > 100 | 5
O=c1cccccc1[O-].O=c1cccccc1[O-].[O]=[U+2]=[O] | 57.3 | 
COc1ccc(C(=O)/C=C/c2cccc([N+](=O)[O-])c2)c(OC)c1 | > 50 | 1.59
CCOC(=O)C(NC(=O)c1ccco1)(Nc1nc2ccc(OCC)cc2s1)C(F)(F)F (stereo not given) | > 100 | 
CCC(C)C1=C(OC(C)=O)[N+]2([O-])Oc3ccc(-c4c(OC(C)=O)c(OC(C)=O)c(-c5ccc(OC(C)=O)cc5)c(OC(C)=O)c4OC(C)=O)cc3OC2(C(C)CC)C(=O)N1OC(C)=O (stereo not given) | > 50 | 
